Assays:
Format in all cases: cell-based
Settings in all cases: MTS assay, 72 hours
[1] = molecular target: T1, wild-type EGFR transformed Ba/F3 cells (Homo sapiens, UniProt P00533); test: Proliferation inhibition assay, wild-type EGFR transformed Ba/F3 cells
T1 construct: expressed in transfected cells; host or cells: Ba/F3
Description: (§1) Cell growth inhibition can be assessed by MTS assay or by Cell Titer Glo Luminescent Cell viability assay (Promega®). Cells are seeded and grow in culture plates before they are exposed to representative compounds of the application for various duration. The viability of the cells are then assessed. […] The growth curves can be fitted using a nonlinear regression model with sigmoidal dose response.
(§2) Cell growth inhibition was assessed by MTS assay for Ba/F3, DFCI58-229, and DFCI127c cells, or by Cell Titer Glo Luminescent Cell viability assay (Promega®) for DFC1362JC cells, 3000 Ba/F3 cells were seeded for per well in 96-well plates, and were exposed to representative compounds of the application (3.3 nM to 10 μM) for 72 hours. For DFCI58-229, DFCI127c, and DFC1362JC cells, 5000 cells were seeded per well. All experimental points included 6 to 12 wells. […] The growth curves were fitted using a nonlinear regression model with sigmoidal dose response.
(§3) Activities of representative compounds of the present application in inhibiting EGFR and HER2 were tested by MTS assay (for Ba/F3 cell, DFCI58-229 cell, and DFCI127c cells) or by CellTiter-Glot luminescent cell viability assay (for DFCI362JC cells). For assays with Ba/F3 cells, 3000 cells were seeded for per well in 96-well plates and were exposed to indicated compounds with a concentration of 3.3 to 10 μM for 72 hours. For assays with DFCI58-229 cell, DFCI127c cell, or DFCI362JC cell, 5000 cells were seeded per well in 96-well plates and were exposed to indicated compounds with a concentration of 3.3 to 10 μM for 72 hours.

[2] = molecular target: T2, EGFR InsSVD (D770_N771insSVD) transformed Ba/F3 cells (Homo sapiens, UniProt P00533, INS770SVD); test: Proliferation inhibition assay, EGFR InsSVD transformed Ba/F3 cells
T2 construct: expressed in transfected cells; host or cells: Ba/F3
Description: as §1, §2, §3

[3] = molecular target: T3, EGFR InsH transformed Ba/F3 cells (Homo sapiens, UniProt P00533, DUP773-773); test: Proliferation inhibition assay, EGFR InsH transformed Ba/F3 cells
T3 construct: expressed in transfected cells; host or cells: Ba/F3
Description: as §1, §2, §3

[4] = molecular target: T4, wild-type HER2 transformed Ba/F3 cells (Homo sapiens, UniProt P04626); test: Proliferation inhibition assay, wild-type HER2 transformed Ba/F3 cells
T4 construct: expressed in transfected cells; host or cells: Ba/F3
Description: as §1, §2, §3

[5] = molecular target: T5, HER2 InsYVMA (A775_G776insYVMA) transformed Ba/F3 cells (Homo sapiens, UniProt P04626, INS775YVMA); test: Proliferation inhibition assay, HER2 InsYVMA transformed Ba/F3 cells
T5 construct: expressed in transfected cells; host or cells: Ba/F3
Description: as §1, §2, §3

[6] = molecular target: T6, HER2 InsWLV transformed Ba/F3 cells (Homo sapiens, UniProt P04626, INS773WL/M774V); test: Proliferation inhibition assay, HER2 InsWLV transformed Ba/F3 cells
T6 construct: expressed in transfected cells; host or cells: Ba/F3
Description: as §1, §2, §3

[7] = molecular target: T7, EGFR InsGY (D770delinsGY) transformed Ba/F3 cells (Homo sapiens, UniProt P00533, D770Y/INS769G); test: Proliferation inhibition assay, EGFR InsGY transformed Ba/F3 cells
T7 construct: expressed in transfected cells; host or cells: Ba/F3
Description: as §1, §2, §3

T7 sequence (P00533 with tags, fused parts or gaps INS769G/D770Y): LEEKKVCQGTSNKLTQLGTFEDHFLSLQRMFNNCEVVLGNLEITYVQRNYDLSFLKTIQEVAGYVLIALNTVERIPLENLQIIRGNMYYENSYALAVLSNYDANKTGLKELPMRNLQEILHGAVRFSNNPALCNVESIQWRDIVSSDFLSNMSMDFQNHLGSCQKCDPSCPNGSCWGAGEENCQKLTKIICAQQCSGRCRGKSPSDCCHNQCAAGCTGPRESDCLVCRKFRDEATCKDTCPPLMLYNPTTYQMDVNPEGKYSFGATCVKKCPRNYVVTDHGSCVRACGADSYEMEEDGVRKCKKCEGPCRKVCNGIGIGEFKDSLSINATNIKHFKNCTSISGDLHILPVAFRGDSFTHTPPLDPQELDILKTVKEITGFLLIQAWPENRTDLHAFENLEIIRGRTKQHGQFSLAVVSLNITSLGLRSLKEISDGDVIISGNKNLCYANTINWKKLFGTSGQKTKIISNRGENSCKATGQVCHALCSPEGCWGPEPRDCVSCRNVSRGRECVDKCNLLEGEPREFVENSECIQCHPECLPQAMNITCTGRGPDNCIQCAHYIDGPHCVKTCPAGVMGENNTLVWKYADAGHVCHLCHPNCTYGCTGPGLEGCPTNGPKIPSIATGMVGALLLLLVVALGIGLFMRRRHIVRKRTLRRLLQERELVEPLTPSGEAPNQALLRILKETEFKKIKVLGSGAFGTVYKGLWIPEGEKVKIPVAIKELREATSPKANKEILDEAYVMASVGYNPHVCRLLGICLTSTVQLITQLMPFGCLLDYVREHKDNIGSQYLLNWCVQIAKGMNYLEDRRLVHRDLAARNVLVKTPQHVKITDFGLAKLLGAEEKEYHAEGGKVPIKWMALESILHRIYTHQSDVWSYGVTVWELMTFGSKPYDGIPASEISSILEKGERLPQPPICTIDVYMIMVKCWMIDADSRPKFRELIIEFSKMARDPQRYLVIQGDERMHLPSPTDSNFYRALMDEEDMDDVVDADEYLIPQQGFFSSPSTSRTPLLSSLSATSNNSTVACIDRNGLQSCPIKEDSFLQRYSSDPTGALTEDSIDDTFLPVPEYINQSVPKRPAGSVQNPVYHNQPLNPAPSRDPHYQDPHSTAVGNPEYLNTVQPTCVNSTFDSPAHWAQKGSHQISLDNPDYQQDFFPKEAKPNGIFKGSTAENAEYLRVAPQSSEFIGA
T1 sequence (P00533 25-1210): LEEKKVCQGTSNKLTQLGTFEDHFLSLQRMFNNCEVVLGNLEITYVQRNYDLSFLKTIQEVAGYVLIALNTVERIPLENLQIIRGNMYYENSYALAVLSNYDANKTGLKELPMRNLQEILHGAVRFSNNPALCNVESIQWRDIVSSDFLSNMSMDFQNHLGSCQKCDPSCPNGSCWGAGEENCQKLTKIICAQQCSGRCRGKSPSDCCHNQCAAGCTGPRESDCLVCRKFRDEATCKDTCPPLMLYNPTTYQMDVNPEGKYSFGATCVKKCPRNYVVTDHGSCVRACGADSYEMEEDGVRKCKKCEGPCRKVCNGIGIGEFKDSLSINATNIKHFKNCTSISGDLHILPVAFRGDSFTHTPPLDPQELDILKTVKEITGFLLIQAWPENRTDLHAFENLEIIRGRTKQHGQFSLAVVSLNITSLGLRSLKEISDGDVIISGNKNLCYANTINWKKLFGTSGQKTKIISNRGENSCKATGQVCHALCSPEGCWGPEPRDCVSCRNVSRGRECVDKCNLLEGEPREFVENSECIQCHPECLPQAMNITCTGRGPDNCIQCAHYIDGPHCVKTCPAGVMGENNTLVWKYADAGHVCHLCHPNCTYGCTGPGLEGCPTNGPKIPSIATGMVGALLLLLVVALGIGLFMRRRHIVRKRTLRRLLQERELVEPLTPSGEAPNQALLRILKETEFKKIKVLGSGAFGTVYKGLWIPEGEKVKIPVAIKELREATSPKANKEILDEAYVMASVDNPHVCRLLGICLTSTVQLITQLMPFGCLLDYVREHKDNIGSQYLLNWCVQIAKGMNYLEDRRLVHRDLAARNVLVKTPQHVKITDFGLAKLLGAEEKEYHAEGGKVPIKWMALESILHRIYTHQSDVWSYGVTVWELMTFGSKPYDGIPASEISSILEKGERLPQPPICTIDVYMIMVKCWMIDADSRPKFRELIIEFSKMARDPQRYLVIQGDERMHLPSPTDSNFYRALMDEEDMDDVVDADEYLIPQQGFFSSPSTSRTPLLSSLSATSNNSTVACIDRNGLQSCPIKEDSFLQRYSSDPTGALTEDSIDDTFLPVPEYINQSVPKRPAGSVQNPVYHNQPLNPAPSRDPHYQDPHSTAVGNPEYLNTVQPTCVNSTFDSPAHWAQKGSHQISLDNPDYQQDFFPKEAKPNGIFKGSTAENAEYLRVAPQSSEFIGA
T2 sequence (P00533 with tags, fused parts or gaps INS770SVD): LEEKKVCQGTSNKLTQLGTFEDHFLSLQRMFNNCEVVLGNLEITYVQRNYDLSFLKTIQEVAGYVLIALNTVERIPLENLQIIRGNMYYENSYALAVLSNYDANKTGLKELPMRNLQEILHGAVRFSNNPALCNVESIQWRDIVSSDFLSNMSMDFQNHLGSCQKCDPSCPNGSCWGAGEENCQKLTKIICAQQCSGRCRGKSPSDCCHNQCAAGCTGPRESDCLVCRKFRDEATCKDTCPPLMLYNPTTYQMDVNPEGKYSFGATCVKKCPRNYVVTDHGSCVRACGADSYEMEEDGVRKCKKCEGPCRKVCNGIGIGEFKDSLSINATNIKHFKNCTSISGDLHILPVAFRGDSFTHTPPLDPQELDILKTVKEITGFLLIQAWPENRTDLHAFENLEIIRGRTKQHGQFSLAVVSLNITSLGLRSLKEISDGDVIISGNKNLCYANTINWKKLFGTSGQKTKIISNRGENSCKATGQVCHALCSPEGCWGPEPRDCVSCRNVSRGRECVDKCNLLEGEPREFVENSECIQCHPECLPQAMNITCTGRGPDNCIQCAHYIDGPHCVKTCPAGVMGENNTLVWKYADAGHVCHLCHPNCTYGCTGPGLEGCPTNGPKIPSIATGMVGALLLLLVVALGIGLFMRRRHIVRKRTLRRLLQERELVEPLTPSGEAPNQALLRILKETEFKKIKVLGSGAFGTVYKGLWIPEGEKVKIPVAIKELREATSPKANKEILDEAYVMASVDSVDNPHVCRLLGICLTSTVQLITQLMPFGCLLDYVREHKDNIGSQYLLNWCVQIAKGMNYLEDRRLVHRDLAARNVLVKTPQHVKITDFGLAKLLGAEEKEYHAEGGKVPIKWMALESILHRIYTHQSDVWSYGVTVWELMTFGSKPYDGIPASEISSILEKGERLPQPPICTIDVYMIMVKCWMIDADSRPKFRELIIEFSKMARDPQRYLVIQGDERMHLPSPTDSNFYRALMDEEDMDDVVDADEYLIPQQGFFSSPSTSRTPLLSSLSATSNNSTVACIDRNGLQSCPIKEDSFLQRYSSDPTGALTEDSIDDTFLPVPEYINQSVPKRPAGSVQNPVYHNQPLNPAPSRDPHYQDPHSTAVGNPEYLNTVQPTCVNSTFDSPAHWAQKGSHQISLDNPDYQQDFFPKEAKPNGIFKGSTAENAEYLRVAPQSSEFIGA
T5 sequence (P04626 with tags, fused parts or gaps INS775YVMA): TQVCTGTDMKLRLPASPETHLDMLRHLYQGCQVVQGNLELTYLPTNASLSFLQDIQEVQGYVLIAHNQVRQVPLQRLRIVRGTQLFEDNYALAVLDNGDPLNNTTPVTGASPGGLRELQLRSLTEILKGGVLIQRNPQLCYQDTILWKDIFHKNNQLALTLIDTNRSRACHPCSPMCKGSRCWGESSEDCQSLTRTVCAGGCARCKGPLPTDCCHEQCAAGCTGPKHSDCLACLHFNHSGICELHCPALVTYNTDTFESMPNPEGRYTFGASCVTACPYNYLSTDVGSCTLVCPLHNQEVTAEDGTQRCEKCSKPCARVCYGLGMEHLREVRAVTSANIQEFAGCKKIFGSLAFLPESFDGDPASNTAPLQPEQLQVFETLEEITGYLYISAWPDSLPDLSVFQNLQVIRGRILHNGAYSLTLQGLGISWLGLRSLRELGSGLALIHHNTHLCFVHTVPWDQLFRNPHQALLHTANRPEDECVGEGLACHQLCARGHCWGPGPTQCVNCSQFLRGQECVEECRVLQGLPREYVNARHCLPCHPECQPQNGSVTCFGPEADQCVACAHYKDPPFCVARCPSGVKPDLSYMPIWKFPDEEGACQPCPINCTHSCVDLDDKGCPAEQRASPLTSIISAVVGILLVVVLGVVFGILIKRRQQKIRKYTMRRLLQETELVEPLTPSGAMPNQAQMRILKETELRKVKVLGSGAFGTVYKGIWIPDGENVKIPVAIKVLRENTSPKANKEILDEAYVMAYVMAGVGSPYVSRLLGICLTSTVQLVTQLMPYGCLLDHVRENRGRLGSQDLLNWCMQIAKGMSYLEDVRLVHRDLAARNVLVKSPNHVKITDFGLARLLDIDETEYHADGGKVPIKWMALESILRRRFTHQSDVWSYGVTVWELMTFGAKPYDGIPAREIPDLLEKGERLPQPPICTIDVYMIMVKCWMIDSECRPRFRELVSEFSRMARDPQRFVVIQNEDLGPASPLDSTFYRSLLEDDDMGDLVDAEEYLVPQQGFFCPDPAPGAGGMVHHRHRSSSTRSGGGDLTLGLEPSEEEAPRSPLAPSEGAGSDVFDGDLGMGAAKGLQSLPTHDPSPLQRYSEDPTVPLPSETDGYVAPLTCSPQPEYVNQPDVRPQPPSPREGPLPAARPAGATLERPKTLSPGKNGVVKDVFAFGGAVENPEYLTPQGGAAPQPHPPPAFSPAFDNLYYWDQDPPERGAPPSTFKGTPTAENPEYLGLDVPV

## C=CC(=O)Nc1cccc(-n2c(=O)c(Oc3ccc(Cl)cc3F)cc3cnc(Nc4cnn(C)c4)nc32)c1 [Compound 89]
[1]
  EC50: < 200 nM
[2]
  EC50: < 200 nM
[3]
  EC50: 200 to 600 nM
[4]; Table 10 key
  EC50: < 200 nM
[5]; Table 10 key
  EC50: < 200 nM
[6]; Table 10 key
  EC50: < 200 nM

## C=CC(=O)Nc1cccc(-n2c(=O)c(Oc3cc(F)c(F)cc3F)cc3cnc(Nc4cnn(C)c4)nc32)c1 [Compound 87]
[1]
  EC50: < 200 nM
[2]
  EC50: < 200 nM
[3]
  EC50: 600 to 1000 nM
[4]; Table 10 key
  EC50: < 200 nM
[5]; Table 10 key
  EC50: < 200 nM
[6]; Table 10 key
  EC50: < 200 nM

## C=CC(=O)N1C[C@H](Cn2c(=O)c(Oc3ccc(F)cc3F)cc3cnc(Nc4cnn(C)c4)nc32)[C@@H](OC)C1 [Compound 102]
[1]
  EC50: < 200 nM
[7]
  EC50: < 200 nM
[2]
  EC50: < 200 nM
[3]
  EC50: 200 to 600 nM
[4]; Table 10 key
  EC50: < 200 nM
[5]; Table 10 key
  EC50: < 200 nM
[6]; Table 10 key
  EC50: < 200 nM

## C=CC(=O)Nc1cc(Nc2ncc3cc(Oc4ccc(F)cc4F)c(=O)n(C)c3n2)ccc1N(C)CCN(C)C [Compound 116]
[1]
  EC50: < 200 nM
[2]
  EC50: < 200 nM
[3]
  EC50: < 200 nM
[4]; Table 10 key
  EC50: < 200 nM
[5]; Table 10 key
  EC50: < 200 nM
[6]; Table 10 key
  EC50: < 200 nM

## CCC(=O)Nc1cc(Nc2ncc3cc(Oc4ccc(F)cc4F)c(=O)n(C)c3n2)c(OC)cc1N(C)CCN(C)C [Compound 111]
[1]
  EC50: > 1000 nM
[7]
  EC50: > 1000 nM
[2]
  EC50: > 1000 nM
[3]
  EC50: > 1000 nM
[4]; Table 10 key
  EC50: > 1000 nM
[5]; Table 10 key
  EC50: > 1000 nM
[6]; Table 10 key
  EC50: > 1000 nM

## C=CC(=O)Nc1cc(Nc2ncc3cc(Oc4ccc(F)cc4F)c(=O)[nH]c3n2)c(OC)cc1N(C)CCN(C)C [Compound 99]
[1]
  EC50: < 200 nM
[7]
  EC50: < 200 nM
[2]
  EC50: < 200 nM
[3]
  EC50: 200 to 600 nM
[4]; Table 10 key
  EC50: < 200 nM
[5]; Table 10 key
  EC50: < 200 nM
[6]; Table 10 key
  EC50: < 200 nM

## C=CC(=O)Nc1cc(Nc2ncc3cc(Oc4ccc(F)cc4F)c(N)nc3n2)c(OC)cc1N(C)CCN(C)C [Compound 140]
[1]
  EC50: < 200 nM
[7]
  EC50: 200 to 600 nM
[2]
  EC50: 200 to 600 nM
[3]
  EC50: 600 to 1000 nM
[4]; Table 9 key
  EC50: < 100 nM
[5]; Table 9 key
  EC50: < 100 nM
[6]; Table 9 key
  EC50: 250 to 500 nM

## C=CC(=O)Nc1cc(Nc2ncc3cc(Oc4ccc(C)cc4)c(=O)n(C)c3n2)c(OC)cc1N(C)CCN(C)C [Compound 131]
[1]
  EC50: < 200 nM
[2]
  EC50: < 200 nM
[3]
  EC50: 200 to 600 nM
[4]; Table 10 key
  EC50: < 200 nM
[5]; Table 10 key
  EC50: < 200 nM
[6]; Table 10 key
  EC50: < 200 nM

## C=CC(=O)Nc1cccc(-n2c(=O)c(Oc3c(F)cc(F)cc3F)cc3cnc(Nc4cnn(C)c4)nc32)c1 [Compound 82]
[1]
  EC50: < 200 nM
[7]
  EC50: < 200 nM
[2]
  EC50: < 200 nM
[3]
  EC50: < 200 nM
[4]; Table 10 key
  EC50: < 200 nM
[5]; Table 10 key
  EC50: < 200 nM
[6]; Table 10 key
  EC50: < 200 nM

## C=CC(=O)Nc1cc(Nc2ncc3cc(Oc4c(F)cc(F)cc4F)c(=O)n(C)c3n2)c(OC)cc1N(C)CCN(C)C [Compound 136]
[1]
  EC50: < 200 nM
[7]
  EC50: < 200 nM
[2]
  EC50: < 200 nM
[3]
  EC50: 200 to 600 nM
[4]; Table 10 key
  EC50: < 200 nM
[5]; Table 10 key
  EC50: < 200 nM
[6]; Table 10 key
  EC50: < 200 nM

## C=CC(=O)N1C[C@H](Cn2c(=O)c(Oc3ccc(F)cc3F)cc3cnc(NC(C)=O)nc32)[C@@H](OC)C1 [Compound 112]
[1]
  EC50: < 200 nM
[2]
  EC50: < 200 nM
[4]; Table 10 key
  EC50: 200 to 600 nM
[5]; Table 10 key
  EC50: 200 to 600 nM

## C=CC(=O)Nc1cc(Nc2ncc3cc(Oc4ccc(F)cc4F)c(=O)n(C)c3n2)ccc1CCCN(C)C [Compound 117]
[1]
  EC50: < 200 nM
[2]
  EC50: 200 to 600 nM
[3]
  EC50: > 1000 nM
[4]; Table 10 key
  EC50: < 200 nM
[5]; Table 10 key
  EC50: < 200 nM
[6]; Table 10 key
  EC50: 200 to 600 nM

## C=CC(=O)Nc1cccc(-n2c(=O)c(Oc3ccc(F)cc3F)cc3cnc(N)nc32)c1 [Compound 106]
[1]
  EC50: < 200 nM
[7]
  EC50: < 200 nM
[2]
  EC50: < 200 nM
[3]
  EC50: 200 to 600 nM
[4]; Table 10 key
  EC50: < 200 nM
[5]; Table 10 key
  EC50: < 200 nM
[6]; Table 10 key
  EC50: < 200 nM

Source: patent US11945816B2, “Inhibitors of EGFR and/or HER2 and methods of use” (Dana-Farber Cancer Institute, Inc., priority 2017, dated 2024)
